Source: PMC10850145, “Hormonal steroids induce multidrug resistance and stress response genes in Neisseria gonorrhoeae by binding to MtrR” (Nature Communications, 2024)
Several values for one entry are separate records, joined by “and”; a condition that tells them apart may be missing. Equal values may be shown once. Entries after “also recorded” stand apart in the source; their conditions may differ. Read-outs that look alike come from different tables or passages of the source.

Columns and labels:
MtrR = molecular target: T1, MtrR (Neisseria gonorrhoeae, UniProt P39897); assay: Isothermal titration calorimetry, ligand binding to MtrR WT; conditions: ITC; for Kd: equilibrium dissociation constant (Kd), MtrR WT, 25 °C, 1% MeOH
T1 construct: Hexa-histidine tag with TEV protease cleavage site (N, cleaved yes); made in house; host or cells: E. coli Rosetta Gami B(DE3) pLysS
T1 sequence (P39897 whole entry): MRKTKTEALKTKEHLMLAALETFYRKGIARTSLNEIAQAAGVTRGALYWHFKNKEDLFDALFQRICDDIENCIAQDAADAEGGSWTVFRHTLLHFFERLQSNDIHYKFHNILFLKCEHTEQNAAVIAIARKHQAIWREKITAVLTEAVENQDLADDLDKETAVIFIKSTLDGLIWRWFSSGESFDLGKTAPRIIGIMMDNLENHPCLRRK

MtrR R176E = molecular target: T2, MtrR R176E (Neisseria gonorrhoeae, UniProt P39897, R176E); assay: biochemical; assay type: binding
T2 construct: Hexa-histidine tag with TEV protease cleavage site (N, cleaved yes); made in house; host or cells: E. coli Rosetta Gami B(DE3) pLysS
T2 sequence (P39897 whole entry R176E): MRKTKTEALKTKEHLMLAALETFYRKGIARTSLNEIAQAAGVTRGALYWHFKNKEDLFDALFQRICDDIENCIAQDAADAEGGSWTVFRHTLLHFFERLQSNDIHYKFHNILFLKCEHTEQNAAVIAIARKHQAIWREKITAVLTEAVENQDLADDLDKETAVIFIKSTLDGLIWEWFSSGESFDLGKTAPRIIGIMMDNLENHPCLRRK

MtrR D171A = molecular target: T3, MtrR D171A (Neisseria gonorrhoeae, UniProt P39897, D171A); assay: biochemical; assay type: binding
T3 construct: Hexa-histidine tag with TEV protease cleavage site (N, cleaved yes); made in house; host or cells: E. coli Rosetta Gami B(DE3) pLysS
T3 sequence (P39897 whole entry D171A): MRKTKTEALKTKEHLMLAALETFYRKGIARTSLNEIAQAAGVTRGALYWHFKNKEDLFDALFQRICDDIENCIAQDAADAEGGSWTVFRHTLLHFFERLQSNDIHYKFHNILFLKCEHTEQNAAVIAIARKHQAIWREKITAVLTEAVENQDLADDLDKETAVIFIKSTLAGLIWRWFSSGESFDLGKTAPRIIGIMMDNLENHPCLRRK

[1] = molecular target: T4, MtrR binding to rpoH operator (27mer) (Neisseria gonorrhoeae, UniProt P39897); assay: Fluorescence polarization based DNA binding assay, rpoH operator; conditions: rpoH 27mer + 125 µM steroid
T4 construct: Hexa-histidine tag with TEV protease cleavage site (N, cleaved yes); made in house; host or cells: E. coli Rosetta Gami B(DE3) pLysS
T4 sequence (P39897 whole entry): as the sequence (P39897 whole entry) above
Method: (§1) Fluorescence polarization based-DNA binding data were collected using a Panvera Beacon 2000 fluorescence polarization system (Invitrogen) and analyzed with Prism (Graphpad Software 9, 10). Purified MtrR was buffer exchanged into “DNA” binding buffer (150 mM NaCl, 20 mM Tris-HCl pH 7.5, 2.5% glycerol, 1 mM TCEP). […] The reported oligoduplexes containing the rpoH and mtrCDE binding site differ in lengths, 27mer and 21mer, respectively[17],[21]. […] BSA and dI-dC are included as carriers and to control for nonspecific DNA binding. Samples were excited at 490 nm and polarized emissions measured at 530 nm. Controls were run with no protein (DNA ± methanol, hormonal steroids) to ensure that millipolarization values were not affected by experimental conditions alone. The binding affinity of protein for DNA was determined using the following equation: P = Pf + (Pb – Pf) [M] / (Kd + [M]) where P is the measured polarization, Pf is the polarization of free DNA, Pb is the polarization of the completely bound DNA, Kd is the equilibrium dissociation constant, and M is the concentration of protein. Pb and Kd were determined by nonlinear least-squares analysis. At least three independent experimental measurements were averaged for each reported binding constant.

[2] = molecular target: T5, MtrR binding to mtrCDE operator (21mer) (Neisseria gonorrhoeae, UniProt P39897); assay: Fluorescence polarization based DNA binding assay, mtrCDE operator; conditions: mtrCDE 21mer + 125 µM steroid
T5 construct: Hexa-histidine tag with TEV protease cleavage site (N, cleaved yes); made in house; host or cells: E. coli Rosetta Gami B(DE3) pLysS
T5 sequence (P39897 whole entry): as above
Method: as §1

N. gonorrhoeae = test system: N. gonorrhoeae; design: method as in PMID 816438; conditions: cited from earlier work

## CC(=O)[C@H]1CC[C@H]2[C@@H]3CCC4=CC(=O)CC[C@]4(C)[C@H]3CC[C@]12C [Progesterone, progesterone]
MtrR
  Kd: 2.75 ± 0.7 µM
MtrR R176E
  Kd: 8.43 ± 8.3 µM
MtrR D171A
  Kd: 8.36 ± 2.5 µM
[1]; MtrR WT dimer 0.00 nM
  fluorescence polarization, MtrR titration: 0.00 mP
[1]; MtrR WT dimer 25.90 nM
  fluorescence polarization, MtrR titration: 11.91 mP and 9.75 mP and 10.51 mP
[1]; MtrR WT dimer 35.50 nM
  fluorescence polarization, MtrR titration: 14.38 mP and 9.72 mP and 14.14 mP
[1]; MtrR WT dimer 54.52 nM
  fluorescence polarization, MtrR titration: 18.81 mP and 15.99 mP and 17.44 mP
[1]; MtrR WT dimer 73.35 nM
  fluorescence polarization, MtrR titration: 23.45 mP and 18.32 mP and 20.67 mP
[1]; MtrR WT dimer 110.67 nM
  fluorescence polarization, MtrR titration: 27.11 mP and 21.95 mP and 25.01 mP
[1]; MtrR WT dimer 147.65 nM
  fluorescence polarization, MtrR titration: 29.38 mP and 25.62 mP and 28.21 mP
[1]; MtrR WT dimer 220.59 nM
  fluorescence polarization, MtrR titration: 32.78 mP and 29.35 mP and 32.41 mP
[1]; MtrR WT dimer 292.55 nM
  fluorescence polarization, MtrR titration: 36.31 mP and 32.79 mP and 35.11 mP
[1]; MtrR WT dimer 363.86 nM
  fluorescence polarization, MtrR titration: 36.91 mP and 35.45 mP and 37.94 mP
[1]; MtrR WT dimer 434.54 nM
  fluorescence polarization, MtrR titration: 40.61 mP and 38.05 mP and 40.54 mP
[1]; MtrR WT dimer 504.61 nM
  fluorescence polarization, MtrR titration: 41.81 mP and 39.19 mP and 42.17 mP
[1]; MtrR WT dimer 574.07 nM
  fluorescence polarization, MtrR titration: 44.75 mP and 41.42 mP and 44.21 mP
[2]; MtrR WT dimer 0.00 nM
  fluorescence polarization, MtrR titration: 0.00 mP
[2]; MtrR WT dimer 3.83 nM
  fluorescence polarization, MtrR titration: 3.14 mP
[2]; MtrR WT dimer 8.85 nM
  fluorescence polarization, MtrR titration: 6.47 mP
[2]; MtrR WT dimer 11.32 nM
  fluorescence polarization, MtrR titration: 7.37 mP and 3.83 mP and 6.23 mP
[2]; MtrR WT dimer 16.21 nM
  fluorescence polarization, MtrR titration: 8.61 mP and 4.53 mP and 7.86 mP
[2]; MtrR WT dimer 35.50 nM
  fluorescence polarization, MtrR titration: 11.01 mP and 7.99 mP and 10.09 mP
[2]; MtrR WT dimer 73.35 nM
  fluorescence polarization, MtrR titration: 14.94 mP and 12.16 mP and 13.46 mP
[2]; MtrR WT dimer 110.67 nM
  fluorescence polarization, MtrR titration: 19.14 mP and 15.56 mP and 17.23 mP
[2]; MtrR WT dimer 147.65 nM
  fluorescence polarization, MtrR titration: 23.64 mP and 19.79 mP and 21.69 mP
[2]; MtrR WT dimer 220.59 nM
  fluorescence polarization, MtrR titration: 29.74 mP and 25.09 mP and 27.23 mP
[2]; MtrR WT dimer 292.55 nM
  fluorescence polarization, MtrR titration: 32.91 mP and 28.39 mP and 31.63 mP
[2]; MtrR WT dimer 363.86 nM
  fluorescence polarization, MtrR titration: 35.71 mP and 31.19 mP and 34.99 mP
[2]; MtrR WT dimer 434.54 nM
  fluorescence polarization, MtrR titration: 39.37 mP and 32.93 mP and 37.49 mP
[2]; MtrR WT dimer 504.61 nM
  fluorescence polarization, MtrR titration: 40.97 mP and 36.33 mP and 40.13 mP
[2]; MtrR WT dimer 574.07 nM
  fluorescence polarization, MtrR titration: 43.64 mP and 38.96 mP and 42.59 mP
[2]; MtrR WT dimer 711.46 nM
  fluorescence polarization, MtrR titration: 46.37 mP and 42.63 mP and 45.23 mP
[2]; MtrR WT dimer 848.00 nM
  fluorescence polarization, MtrR titration: 49.37 mP and 45.06 mP and 48.53 mP
N. gonorrhoeae; listed as PTR
  growth inhibition of N. gonorrhoeae: arrest N. gonorrhoeae growth; also recorded: most effective in growth inhibition

## C[C@]12CC[C@H]3[C@@H](CCC4=CC(=O)CC[C@@]43C)[C@@H]1CC[C@@H]2O [Testosterone, testosterone]
MtrR
  binding stoichiometry N (ligand per MtrR): ~ 1
  Kd: 2.26 µM and ~2.26 µM
MtrR; listed as TES
  binding stoichiometry N (ligand per MtrR): one molecule of steroid per MtrR monomer
MtrR R176E
  Kd: 3.73 ± 0.4 µM
MtrR D171A
  Kd: 30.9 ± 24.2 µM
[1]; MtrR WT dimer 0.00 nM
  fluorescence polarization, MtrR titration: 0.00 mP
[1]; MtrR WT dimer 6.35 nM
  fluorescence polarization, MtrR titration: 2.56 mP and 4.77 mP and 2.79 mP
[1]; MtrR WT dimer 8.85 nM
  fluorescence polarization, MtrR titration: 4.03 mP and 4.45 mP
[1]; MtrR WT dimer 11.32 nM
  fluorescence polarization, MtrR titration: 4.86 mP and 6.47 mP and 4.69 mP
[1]; MtrR WT dimer 16.21 nM
  fluorescence polarization, MtrR titration: 6.33 mP and 8.37 mP and 6.42 mP
[1]; MtrR WT dimer 25.90 nM
  fluorescence polarization, MtrR titration: 9.43 mP and 8.25 mP
[1]; MtrR WT dimer 35.50 nM
  fluorescence polarization, MtrR titration: 11.51 mP and 12.65 mP and 12.17 mP
[1]; MtrR WT dimer 54.52 nM
  fluorescence polarization, MtrR titration: 15.46 mP and 15.52 mP
[1]; MtrR WT dimer 73.35 nM
  fluorescence polarization, MtrR titration: 17.83 mP and 19.00 mP and 18.19 mP
[1]; MtrR WT dimer 110.67 nM
  fluorescence polarization, MtrR titration: 21.89 mP and 23.20 mP and 21.59 mP
[1]; MtrR WT dimer 147.65 nM
  fluorescence polarization, MtrR titration: 25.36 mP and 23.99 mP
[1]; MtrR WT dimer 220.59 nM
  fluorescence polarization, MtrR titration: 26.93 mP and 29.97 mP and 27.52 mP
[1]; MtrR WT dimer 292.55 nM
  fluorescence polarization, MtrR titration: 30.66 mP and 32.37 mP and 31.12 mP
[1]; MtrR WT dimer 363.86 nM
  fluorescence polarization, MtrR titration: 32.43 mP and 34.37 mP and 33.42 mP
[1]; MtrR WT dimer 434.54 nM
  fluorescence polarization, MtrR titration: 34.93 mP and 38.17 mP and 35.29 mP
[1]; MtrR WT dimer 504.61 nM
  fluorescence polarization, MtrR titration: 36.76 mP and 39.37 mP and 37.09 mP
[1]; MtrR WT dimer 574.07 nM
  fluorescence polarization, MtrR titration: 38.43 mP and 40.67 mP and 39.72 mP
[2]; MtrR WT dimer 0.00 nM
  fluorescence polarization, MtrR titration: 0.00 mP
[2]; MtrR WT dimer 6.35 nM
  fluorescence polarization, MtrR titration: 2.61 mP and 1.77 mP and 1.84 mP
[2]; MtrR WT dimer 11.32 nM
  fluorescence polarization, MtrR titration: 5.67 mP and 3.54 mP and 4.04 mP
[2]; MtrR WT dimer 16.21 nM
  fluorescence polarization, MtrR titration: 6.61 mP and 4.54 mP and 5.44 mP
[2]; MtrR WT dimer 35.50 nM
  fluorescence polarization, MtrR titration: 8.17 mP and 7.34 mP and 6.54 mP
[2]; MtrR WT dimer 73.35 nM
  fluorescence polarization, MtrR titration: 11.31 mP and 10.71 mP and 11.67 mP
[2]; MtrR WT dimer 110.67 nM
  fluorescence polarization, MtrR titration: 14.21 mP and 12.44 mP and 14.87 mP
[2]; MtrR WT dimer 147.65 nM
  fluorescence polarization, MtrR titration: 16.64 mP and 15.47 mP and 17.31 mP
[2]; MtrR WT dimer 220.59 nM
  fluorescence polarization, MtrR titration: 21.64 mP and 18.07 mP and 21.37 mP
[2]; MtrR WT dimer 292.55 nM
  fluorescence polarization, MtrR titration: 24.51 mP and 22.87 mP and 24.21 mP
[2]; MtrR WT dimer 363.86 nM
  fluorescence polarization, MtrR titration: 27.31 mP and 26.01 mP and 26.94 mP
[2]; MtrR WT dimer 434.54 nM
  fluorescence polarization, MtrR titration: 29.54 mP and 28.57 mP and 30.57 mP
[2]; MtrR WT dimer 504.61 nM
  fluorescence polarization, MtrR titration: 32.14 mP and 30.37 mP and 33.41 mP
[2]; MtrR WT dimer 574.07 nM
  fluorescence polarization, MtrR titration: 34.11 mP and 32.41 mP and 35.04 mP
[2]; MtrR WT dimer 711.46 nM
  fluorescence polarization, MtrR titration: 38.41 mP and 36.24 mP and 38.57 mP
[2]; MtrR WT dimer 848.00 nM
  fluorescence polarization, MtrR titration: 41.31 mP and 39.27 mP and 42.47 mP
N. gonorrhoeae
  growth inhibition of N. gonorrhoeae: arrest N. gonorrhoeae growth
